Test results taken from the supplement of paper PMC10307832.

How the values were obtained:
Assay in all cases: relative viability (nuclei count vs DMSO), 5 days (fraction); higher = more cells survive
[1] = compound: NCC(=O)Nc1ccc(-n2nc(C(F)(F)F)cc2-c2ccc3c(ccc4ccccc43)c2)cc1 + Cc1nc(Nc2ncc(C(=O)Nc3c(C)cccc3Cl)s2)cc(N2CCN(CCO)CC2)n1 [Dasatinib] (partner 0.075 µM)
Procedure, shortened: (§1)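 Values are medians from duplicate plates. Each reflects relative viability, defined as the nuclei count of treated wells over that of vehicle wells. Lung cancer cell lines in 1536-well plates were pin-tool dosed one day after seeding with one drug alone or with a fixed anchor-drug dose plus five library-drug doses (not always all listed) in √10 steps, then fixed, stained and imaged at 4× after 5 days.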

[2] = compound: C1CSC2=C(C(=O)N1)SC3=C2C=C(C=C3)O [kb NB 142-70] + CS(=O)(=O)CCNCc1ccc(-c2ccc3ncnc(Nc4ccc(OCc5cccc(F)c5)c(Cl)c4)c3c2)o1 [Lapatinib] (partner 2 µM)
Procedure, shortened: as §1

[3] = compound: NCC(=O)Nc1ccc(-n2nc(C(F)(F)F)cc2-c2ccc3c(ccc4ccccc43)c2)cc1 + CC(=O)c1c(C)c2cnc(Nc3ccc(N4CCNCC4)cn3)nc2n(C2CCCC2)c1=O [Palbociclib] (partner 0.5 µM)
Procedure, shortened: as §1

[4] = compound: NCC(=O)Nc1ccc(-n2nc(C(F)(F)F)cc2-c2ccc3c(ccc4ccccc43)c2)cc1 + N=C(N)NC(=N)NCCc1ccccc1 [Phenformin] (partner 250 µM)
Procedure, shortened: as §1

Cell Line	relative viability ([1]; first compound 0.02 µM)	relative viability ([1]; first compound 0.06325 µM)	relative viability ([1]; first compound 0.2 µM)	relative viability ([1]; first compound 0.6325 µM)	relative viability ([1]; first compound 2 µM)	relative viability ([2]; first compound 0.1 µM)	relative viability ([2]; first compound 1 µM)	relative viability ([2]; first compound 3.162 µM)	relative viability ([3]; first compound 0.02 µM)	relative viability ([3]; first compound 0.06325 µM)	relative viability ([3]; first compound 0.2 µM)	relative viability ([3]; first compound 0.6325 µM)	relative viability ([3]; first compound 2 µM)	relative viability ([4]; first compound 0.02 µM)	relative viability ([4]; first compound 0.06325 µM)	relative viability ([4]; first compound 0.2 µM)	relative viability ([4]; first compound 0.6325 µM)	relative viability ([4]; first compound 2 µM)
NCI-H1355	0.664	0.813	0.723	0.754	0.756	0.993	0.943	1.07	0.426	0.43	0.393	0.408	0.405	0.465	0.497	0.419	0.483	0.522
H3255	0.477	0.343	0.348	0.337	0.347	0.271	0.195	0.234	0.35	0.313	0.314	0.322	0.304	0.343	0.341	0.364	0.334	0.435
NCI-H1993	0.569	0.696	0.526	0.688	0.631	0.71	0.765	0.856	0.658	0.599	0.808	0.696	0.706	0.453	0.438	0.515	0.493	0.5
NCI-H1734	0.468	0.472	0.513	0.466	0.438	1.06	0.895	0.523	0.361	0.343	0.345	0.333	0.356	0.421	0.365	0.414	0.422	0.395
HOP-62	0.725	0.629	0.699	0.652	0.679	1.07	0.97	0.974	0.453	0.384	0.42	0.452	0.545	0.683	0.7	0.644	0.608	0.735
LOU-NH91	0.577	0.601	0.536	0.558	0.541	0.724	0.73	0.581	0.647	0.519	0.528	0.541	0.582	0.652	0.748	0.686	0.671	0.778
NCI-H2228	0.561	0.571	0.523	0.472	0.533	1.07	1.02	0.323	0.711	0.78	0.802	0.653	0.656	0.432	0.484	0.352	0.266	0.31
PC-14	0.281	0.303	0.297	0.234	0.302	0.362	0.304	0.341	0.494	0.557		0.524	0.46	0.553	0.64	0.543	0.57	0.642
NCI-H1437	0.309	0.359	0.265	0.506	0.526	0.728	0.78	0.85	0.331	0.328	0.3	0.341	0.307	0.247	0.302	0.331	0.308	0.339
NCI-H460	0.425	0.597	0.543	0.494	0.547	1.02	1.03	0.48	0.143	0.2	0.251	0.171	0.2	0.482	0.504	0.505	0.537	0.458
NCI-H1666	0.814	0.793	0.881	0.814	0.744	0.637	0.598	0.335	0.658	0.677	0.69	0.616	0.624	0.552	0.566	0.539	0.586	0.579
NCI-H1651	0.319	0.447	0.346	0.494	0.462	0.902	0.789	0.471	0.508	0.555	0.497	0.539	0.541	0.313	0.387	0.327	0.371	0.313
NCI-H1755	0.435	0.44	0.431	0.45	0.414	1.02	1.04	1.02	0.48	0.444	0.448	0.471	0.434	0.582	0.587	0.577	0.606	0.607
NCI-H661	0.866	1.01	0.884	0.943	0.925	0.511	0.478	0.492	0.412	0.402	0.39	0.416	0.433	0.267	0.259	0.268	0.295	0.27
HARA	0.227	0.241	0.233	0.256	0.296	0.943	0.634	0.661	0.258	0.173	0.287	0.294	0.256	0.479	0.407	0.456	0.441	0.53
NCI-H23	0.885	0.781	0.825	0.73	0.832	1.23	0.872	0.413	0.493	0.548	0.535	0.507	0.553	0.702	0.801	0.802	0.823	0.799
LCLC-97TM1	0.901	0.809	0.797	0.827	0.752	0.992	0.685	1.08	0.249	0.205	0.22	0.233	0.199	0.397	0.434	0.466	0.442	0.442
EPLC-272H	0.35	0.406	0.351	0.357	0.671	0.937	0.817	0.649	0.332	0.306	0.36	0.335	0.326	0.289	0.366	0.261	0.324	0.294
